# Laboratory results: ChEMBL document CHEMBL3885861, “Open TG-GATES”
# Organism: Rattus norvegicus
# Assay: Open TG-GATES - Regimen: Single
# Assay type: toxicity, organism-based, Sprague-Dawley
# Parameters: regimen Single, gender Male, age 6 weeks
# Conditions: in vivo, po, 5 mg/kg, route gavage, dose level Low; for APTT / Bas / Eos / Fbg / Hb / Ht / Lym / MCH / MCHC / MCV / Mono / Neu / PT / Plat / RBC / Ret / WBC: tissue Blood; for LIVER: tissue Liver; for A/G / ALP / ALT / AST / BUN / CRE / Ca / Cl / DBIL / GLC / IP / K / LDH / Na / PL / RALB / TBIL / TC / TG / TP / gamma-GTP: tissue Plasma
compound,measurement,setting,value
C=C(C)[C@H]1Cc2c(ccc3c2O[C@@H]2COc4cc(OC)c(OC)cc4[C@@H]2C3=O)O1 [ROTENONE],TERMINAL_BW,3 h,199.1 g
same,APTT,3 h,15.7 s
same,Bas,3 h,0%
same,Eos,3 h,1%
same,Fbg,3 h,223 mg/dL
same,Hb,3 h,12.6 g/dL
same,Ht,3 h,38.3%
same,Lym,3 h,77.2%
same,MCH,3 h,21.2 pg
same,MCHC,3 h,33%
same,MCV,3 h,64.3 fL
same,Mono,3 h,7.2%
same,Neu,3 h,14.6%
same,PT,3 h,12.3 s
same,Plat,3 h,119.4 x10_4/uL
same,RBC,3 h,595.4 x10_4/ul
same,Ret,3 h,8.6%
same,WBC,3 h,104.4 x10_2/uL
same,LIVER,3 h,9.3 g
same,A/G,3 h,2.1
same,ALP,3 h,1388.6 IU/L
same,ALT,3 h,39 IU/L
same,AST,3 h,64.8 IU/L
same,BUN,3 h,13.8 mg/dL
same,CRE,3 h,0.4 mg/dL
same,Ca,3 h,11.5 mg/dL
same,Cl,3 h,103.8 meq/L
same,DBIL,3 h,0.012 mg/dL
same,GLC,3 h,189.2 mg/dL
same,IP,3 h,8.4 mg/dL
same,K,3 h,4.3 meq/L
same,LDH,3 h,112.6 IU/L
same,Na,3 h,140.6 meq/L
same,PL,3 h,142.2 mg/dL
same,RALB,3 h,3.7 g/dL
same,TBIL,3 h,0.04 mg/dL
same,TC,3 h,89.6 mg/dL
same,TG,3 h,74.8 mg/dL
same,TP,3 h,5.4 g/dL
same,gamma-GTP,3 h,1 IU/L
same,TERMINAL_BW,6 h,191.9 g
same,APTT,6 h,17.5 s
same,Bas,6 h,0%
same,Eos,6 h,1%
same,Fbg,6 h,227.6 mg/dL
same,Hb,6 h,12.9 g/dL
same,Ht,6 h,39.6%
same,Lym,6 h,77.4%
same,MCH,6 h,21 pg
same,MCHC,6 h,32.8%
same,MCV,6 h,64.1 fL
same,Mono,6 h,4.2%
same,Neu,6 h,17.8%
same,PT,6 h,12.6 s
same,Plat,6 h,127.8 x10_4/uL
same,RBC,6 h,618.2 x10_4/ul
same,Ret,6 h,8.4%
same,WBC,6 h,86.8 x10_2/uL
same,LIVER,6 h,8.4 g
same,A/G,6 h,2.3
same,ALP,6 h,1155.6 IU/L
same,ALT,6 h,36.8 IU/L
same,AST,6 h,67.6 IU/L
same,BUN,6 h,10.6 mg/dL
same,CRE,6 h,0.4 mg/dL
same,Ca,6 h,11 mg/dL
same,Cl,6 h,104.6 meq/L
same,DBIL,6 h,0.01 mg/dL
same,GLC,6 h,182.8 mg/dL
same,IP,6 h,8.9 mg/dL
same,K,6 h,4.3 meq/L
same,LDH,6 h,86.6 IU/L
same,Na,6 h,140 meq/L
same,PL,6 h,133.4 mg/dL
same,RALB,6 h,3.7 g/dL
same,TBIL,6 h,0.046 mg/dL
same,TC,6 h,82.2 mg/dL
same,TG,6 h,48.6 mg/dL
same,TP,6 h,5.4 g/dL
same,gamma-GTP,6 h,1 IU/L
same,TERMINAL_BW,9 h,190.6 g
same,APTT,9 h,16.3 s
same,Bas,9 h,0%
same,Eos,9 h,1%
same,Fbg,9 h,218.6 mg/dL
same,Hb,9 h,12.9 g/dL
same,Ht,9 h,39.5%
same,Lym,9 h,66.8%
same,MCH,9 h,21.2 pg
same,MCHC,9 h,32.6%
same,MCV,9 h,65.1 fL
same,Mono,9 h,10.6%
same,Neu,9 h,22.2%
same,PT,9 h,12.3 s
same,Plat,9 h,123.8 x10_4/uL
same,RBC,9 h,606.2 x10_4/ul
same,Ret,9 h,8.4%
same,WBC,9 h,86.2 x10_2/uL
same,LIVER,9 h,8.1 g
same,A/G,9 h,2.4
same,ALP,9 h,1273.6 IU/L
same,ALT,9 h,29.2 IU/L
same,AST,9 h,63 IU/L
same,BUN,9 h,10.2 mg/dL
same,CRE,9 h,0.3 mg/dL
same,Ca,9 h,11.1 mg/dL
same,Cl,9 h,104.6 meq/L
same,DBIL,9 h,0.008 mg/dL
same,GLC,9 h,183.4 mg/dL
same,IP,9 h,10.2 mg/dL
same,K,9 h,4.2 meq/L
same,LDH,9 h,102.8 IU/L
same,Na,9 h,139.4 meq/L
same,PL,9 h,129.6 mg/dL
same,RALB,9 h,3.8 g/dL
same,TBIL,9 h,0.044 mg/dL
same,TC,9 h,78 mg/dL
same,TG,9 h,42.4 mg/dL
same,TP,9 h,5.4 g/dL
same,gamma-GTP,9 h,1 IU/L
same,TERMINAL_BW,24 h,213.3 g
same,APTT,24 h,15.6 s
same,Bas,24 h,0%
same,Eos,24 h,1%
same,Fbg,24 h,208.6 mg/dL
same,Hb,24 h,12.8 g/dL
same,Ht,24 h,39%
same,Lym,24 h,69%
same,MCH,24 h,21.2 pg
same,MCHC,24 h,32.8%
same,MCV,24 h,64.7 fL
same,Mono,24 h,10%
same,Neu,24 h,19.8%
same,PT,24 h,12 s
same,Plat,24 h,123.2 x10_4/uL
same,RBC,24 h,602.8 x10_4/ul
same,Ret,24 h,8.5%
same,WBC,24 h,98.2 x10_2/uL
same,LIVER,24 h,10.5 g
same,A/G,24 h,2.4
same,ALP,24 h,1417.6 IU/L
same,ALT,24 h,40.4 IU/L
same,AST,24 h,71 IU/L
same,BUN,24 h,15.6 mg/dL
same,CRE,24 h,0.4 mg/dL
same,Ca,24 h,11.5 mg/dL
same,Cl,24 h,103.2 meq/L
same,DBIL,24 h,0.014 mg/dL
same,GLC,24 h,187.2 mg/dL
same,IP,24 h,7.7 mg/dL
same,K,24 h,4.6 meq/L
same,LDH,24 h,106.6 IU/L
same,Na,24 h,139.4 meq/L
same,PL,24 h,158.8 mg/dL
same,RALB,24 h,3.9 g/dL
same,TBIL,24 h,0.034 mg/dL
same,TC,24 h,86.2 mg/dL
same,TG,24 h,146.8 mg/dL
same,TP,24 h,5.6 g/dL
same,gamma-GTP,24 h,0.6 IU/L
